Results taken from BindingDB's records for doi:10.1016/j.ejmech.2017.02.016 (De Montfort University, 2017).

Columns and labels:
[1] = Inhibition of human CYP1B1 expressed in human A2780 cells assessed as potentiation of cisplatin-induced cytotoxicity by measuring cisplatin EC50 at 0.02 uM by MTT assay (Rvb = 40 +/- 4.9 uM)
[2] = Inhibition of human CYP1B1 expressed in HEK293 cells assessed as potentiation of cisplatin-induced cytotoxicity by measuring cisplatin EC50 at 0.02 uM by MTT assay (Rvb = 61 +/- 8 uM)
[3] = Inhibition of human CYP1B1 expressed in human A2780 cells assessed as potentiation of cisplatin-induced cytotoxicity by measuring cisplatin EC50 at 0.016 uM by MTT assay (Rvb = 40 +/- 4.9 uM)
[4] = Inhibition of human CYP1B1 expressed in HEK293 cells assessed as potentiation of cisplatin-induced cytotoxicity by measuring cisplatin EC50 at 0.016 uM by MTT assay (Rvb = 61 +/- 8 uM)
[5] = Inhibition of human CYP1B1 expressed in HEK293 cells assessed as potentiation of cisplatin-induced cytotoxicity by measuring cisplatin EC50 at 0.018 uM by MTT assay (Rvb = 61 +/- 8 uM)
[6] = Inhibition of human CYP1B1 expressed in human A2780 cells assessed as potentiation of cisplatin-induced cytotoxicity by measuring cisplatin EC50 at 0.018 uM by MTT assay (Rvb = 40 +/- 4.9 uM)

O=C(/C=C/c1ccc2ccccc2c1)c1cccnc1 showed an EC50 [1] of 0.5 µM and an EC50 [2] of 1 µM.

For O=c1cc(-c2ccccc2)oc2c1ccc1ccccc12, the EC50 [3] was 35 µM and the EC50 [4] was 40 µM.

For COc1ccc2cc(C(=O)/C=C/c3cccnc3)ccc2c1, the EC50 [5] was 8.3 µM and the EC50 [6] was 3.3 µM.
